Data on two compounds can be found in PMC11206913, “Amoebicidal Effect of COVID Box Molecules against Acanthamoeba: A Study of Cell Death” (Pharmaceuticals, 2024).

The nature of one data set: Solubility (remark). It is filed as physicochemical. Particulars: reason for discarding.
In data set [1] the test system is A. castellanii Neff cysts. Description: Cysticidal activity, alamarBlue method. In kind it is cell-based. Particulars: Acanthamoeba castellanii, read-out: IC50 cysticidal effect. How it is done: (§1) Based on the amoebicidal and cytotoxicity results, the selected compounds, Almitrine and Terconazole, were further investigated on the cyst stage of the various Acanthamoeba strains: A. castellanii Neff, A. griffini, A. polyphaga, A. culbertsoni, and A. castellanii L-10. The cysticidal activity was assessed by the alamarBlue™ method, as described previously. Briefly, in a 96-well plate, a serial dilution of the mentioned drugs was first conducted. Later, cysts were resuspended in PYG medium and were added into each well at a concentration of 5 × 10^4 cysts mL^−1. The plates were examined over a week using an inverted microscope. After 7 days of incubation, the plates were centrifuged at 3000 rpm and the medium was replaced with a new PYG. Finally, 10 μL of alamarBlue^TM Cell Viability Reagent (Biosource, Europe, Nivelles, Belgium) was placed into each well, and the plates were incubated at 28 °C with slight agitation. The emitted fluorescence was measured after 144 h.

The subject of data set [2] is Acanthamoeba culbertsoni trophozoites. Description: Trophocidal activity, alamarBlue assay. It is filed as cell-based. To be noted: read-out: IC50 trophocidal effect. As for the experimental part: (§2) The trophocidal effect of the 160 molecules from the COVID Box was determined using the alamarBlue™ (Life Technologies, Madrid, Spain) assay as previously described with modifications. Briefly, Acanthamoeba castellanii Neff trophozoites were first seeded in triplicate on a 96-well microtiter plate with 99 μL from a stock solution of 5 × 10^4 cells mL^−1. Subsequently, 1 μL of each compound was added to each well to assess the in vitro amoebicidal activity at 10 μM as the final concentration. Finally, 10 µL of alamarBlue™ Cell Viability Reagent (Bioresource, Europe, Nivelles, Belgium) was added into each well. The plates were then incubated for 96 h at 28 °C with a slight agitation. An EnSpire microplate reader (PerkinElmer, Waltham, MA, USA) was used to measure fluorescence at 570/585 nm. Then, the percentage of inhibition value of the tested COVID Box compounds was determined in comparison with the negative control.
(§3) Almitrine and Terconazole were the COVID Box products selected to evaluate the amoebicidal effect against the trophozoite stage of […] strains of Acanthamoeba: A. castellanii Neff, A. griffini, A. polyphaga, A. culbertsoni, and A. castellanii L10. The inhibition concentration 50 (IC50) value was calculated based on the alamarBlue™ assay, as previously mentioned.
On the technique in general: Alamar Blue is a resazurin reagent that responds to reducing activity.

The test system of another data set is A. griffini trophozoites. Description: Trophocidal activity, alamarBlue assay. It is filed as cell-based. Particulars: Acanthamoeba griffini, read-out: IC50 trophocidal effect. How it is done:
as §2, §3

Data set [3] concerns murine macrophages J774A.1. Description: Cytotoxicity against murine macrophages, alamarBlue. In kind it is cell-based. As for the experimental part: The cytotoxicity of the COVID Box compounds was evaluated against murine macrophages of the J774A.1 cell line (ATCC TIB-67), as previously described. As mentioned in the trophocidal assay, cells were allowed to adhere on a 96-well plate in 37 °C in a 5% CO2 humidified incubator. Later, a well-defined volume of the compounds was added at an affinal concentration of 10 µM to each well. Fluorescence emitted by the alamarBlue^TM was measured after 24 h of incubation and the percentage inhibition value was determined. The Cytotoxicity Concentration 50 (CC50) value of Almitrine and Terconazole was determined following the same method described previously for the trophocidal effect.

In another data set the test system is A. castellanii L10 cysts. Description: Cysticidal activity, alamarBlue method. In kind it is cell-based, Acanthamoeba castellanii L10. To be noted: Acanthamoeba castellanii, read-out: IC50 cysticidal effect. How it is done: as §1
Data set [4] relates to Acanthamoeba culbertsoni trophozoites. Description: ROS generation, CellROX Deep Red staining. In kind it is cell-based. To be noted: IC90, 24 h. How it is done:
(§4) Acanthamoeba culbertsoni cells were incubated with IC90 of Terconazole for 24 h. All mean fluorescence intensities were quantified using EVOS M5000 (Life Technologies, Madrid, Spain), processing three different observations in triplicate using an objective (×40), and images of single cells were obtained by a Leica DMI 4000 B inverted confocal microscope with a 63× objective (Leica Microsystems, Germany). All assays were performed in triplicate.
The overproduction of intracellular ROS was measured using the CellROX® Deep red fluorescent probe (Invitrogen, Madrid, Spain).

Another data set deals with A. polyphaga cysts. Description: Cysticidal activity, alamarBlue method. Particulars: Acanthamoeba polyphaga, read-out: IC50 cysticidal effect. In kind it is cell-based. As for the experimental part: as §1
Data set [5] has as its system A. polyphaga trophozoites. Description: Trophocidal activity, alamarBlue assay. It is filed as cell-based. Particulars: Acanthamoeba polyphaga, read-out: IC50 trophocidal effect. As for the experimental part: as §2, §3
The subject of data set [6] is A. castellanii L10 trophozoites. Description: Trophocidal activity, alamarBlue assay. Particulars: Acanthamoeba castellanii, read-out: IC50 trophocidal effect. In kind it is cell-based. As for the experimental part: as §2, §3
In data set [7] the test system is Acanthamoeba culbertsoni. Description: Chromatin condensation, Hoechst 33342/PI double stain. Particulars: IC90, 24 h. It is filed as cell-based. How it is done:
as §4
A double-stain apoptosis detection kit (Chromatin Condensation/Dead Cell Apoptosis Kit) with Hoechst 33342 and Propidium Iodide (Invitrogen, Madrid, Spain) were used. The experiment was carried out by following the manufacturer’s recommendations.

The next data set relates to Naegleria fowleri. The arrangement: method as in PMID 38718717. Particulars: previous work of the authors; read-out: IC50 against Naegleria fowleri; cited from earlier work.
Data set [8] deals with Acanthamoeba castellanii L10 trophozoites. Description: Comparative label-free proteomics. It is filed as cell-based. To be noted: IC50, 24 h. How it is done:
The proteomic analysis was conducted according to Arbon et al., 2022 [39]. A quantity of 10^6 cells was first incubated with Terconazole at IC50 for 24 h, then treated and untreated cells were centrifuged and washed with PBS. Both groups were prepared in three biological replicates. The assay was conducted as detailed in our previous work. Results were analyzed using STRING free software and GraphPad 9 prism (Supplementary Material File S2).

Data set [9] concerns Acanthamoeba culbertsoni. Description: ATP assay, CellTiter-Glo. It is filed as cell-based. To be noted: IC90, 24 h of treatment. How it is done:
as §4
After 24 h of drug treatment, the intracellular ATP content was measured using a CellTiter-Glo Luminescent Cell Viability Assay (Promega, Madison, WI, USA). The experiment was carried out according to the manufacturer’s instructions, and the luminescence intensity was measured in a white 96-well plate using an EnSpire® Multimode Plate Reader.
Background: ATP-based viability assays read luminescence as a measure of living cells.

In data set [10] the test system is Acanthamoeba culbertsoni trophozoites. Description: Actin staining with phalloidin-TRITC. It is filed as cell-based. To be noted: IC90. As for the experimental part:
As in the immunofluorescence staining, cells were first treated with IC90 of Terconazole and fixed with formaldehyde (4%) over a gelatin-precoated coverslip. Later, the cells were permeabilized with Triton (0.1%), followed by a 1 h incubation with phalloidin–tetramethylrhodamine B isothiocyanate (phalloidin-TRITC; Sigma-Aldrich, Madrid, Spain) at room temperature. Cells were finally washed with PBS 1X and mounted using mounting medium with DAPI. Cells were examined by Z-stack imaging using a Leica DMI 4000 B inverted confocal microscope with a 63× objective (Leica Microsystems, Wetzlar, Germany), a 405 nm laser, and a 532 nm laser.

The test system is the same in data set [11]. Description: Mitochondrial membrane potential, JC-1 dye. In kind it is cell-based. Particulars: IC90, 24 h. How it is done:
as §4
Based on the JC-1 state and the emitted fluorescence, we distinguished two sets in the cellular population: live cells emit high red fluorescence and affected cells with collapsed mitochondrial membrane potential emit a higher green fluorescence.

The test system is the same in data set [12]. Description: Immunofluorescence staining of tubulin. In kind it is cell-based. To be noted: IC90, 24 h. As for the experimental part:
Immunofluorescence staining of tubulin was performed according to the manufacturer’s staining procedure (Sigma-Aldrich, Madrid, Spain) with slight modifications. Briefly, cells were treated first with Terconazole at IC90. After 24 h of incubation, 50 µL of treated and untreated cell suspensions was placed on a gelatin precoated coverslip for 30 min. Cells were first fixed with formaldehyde (4%) and later permeabilized with Triton (0.3%) for 10 min. Washed with PBS (3X), cells were treated with 5% BSA in PBS 1X/150 mM sucrose for 30 min and washed with glycine 100 mM. At this stage, the trophozoites were incubated with a monoclonal antibody, Anti-α-Tubulin (1:2000), for 2 h at room temperature. Washed twice with PBS, cells were then incubated with the second antibody labeled with Alexa 594 (1:500; from Thermo Fisher Scientific, Rockford, IL, USA) for an hour at room temperature in darkness. Finally, cells were washed with PBS 1X and mounted using mounting medium with DAPI (Sigma-Aldrich; Madrid, Spain). Three-dimensional and maximum projection imaging of the trophozoites was performed by Z-stack imaging using a Leica DMI 4000 B inverted confocal microscope with LAS X software (Leica DMI 4000 B inverted confocal microscope), a 405 nm laser and a 532 nm laser, and a Leica HCX PL Apo 63× Oil Objective.

Data set [13] deals with Acanthamoeba culbertsoni. Description: Plasma membrane permeability, SYTOX Green. In kind it is cell-based. Particulars: IC90, 24 h. As for the experimental part:
as §4
The effect of the study drug on the cell’s membrane permeability was assessed using specific DNA staining. SYTOX® Green (Molecular Probes, Invitrogen, Madrid, Spain) is a DNA-specific dye impermeable to the cells, whose fluorescence increases 500× upon fixation to the DNA. Briefly, […] trophozoites were incubated for 24 h with IC90 of the drug solution. Subsequently, the SYTOX® Green dye was added at a final concentration of 1 μM for 15 min in the dark.

As for `C=CCNc1nc(NCC=C)nc(N2CCN(C(c3ccc(F)cc3)c3ccc(F)cc3)CC2)n1` [Almitrine], in “Solubility (remark)”, the solubility result is listed as “low solubility”. Further, the IC50 (commonly the concentration that gives 50% inhibition) is 51.7 ± 2.13 µM in data set [1], 32.08 ± 0.06 µM in data set [2], 5.2 ± 0.4 µM in the data set with A. griffini trophozoites and 8.76 ± 0.07 µM in the data set with A. castellanii L10 cysts. Moreover, the “cytotoxicity compared between the two drugs” value in [3] is “lower cytotoxicity than Terconazole”.

`CC(C)N1CCN(c2ccc(OCC3COC(Cn4cncn4)(c4ccc(Cl)cc4Cl)O3)cc2)CC1` (stereo not drawn) [Terconazole]: the “ROS production (CellROX Deep Red fluorescence)” value in data set [4] was “significantly higher fluorescence than the untreated cells”. Further, the IC50 is 2.24 ± 0.5 µM in the data set with A. polyphaga cysts; 10.2 ± 2.01 µM in [1]; 4.62 µM in data set [5]; 9.07 µM in [6]; 3.68 ± 0.61 µM with Naegleria fowleri. For the same compound, the “chromatin condensation (Hoechst/PI staining)” value in the data set on Acanthamoeba culbertsoni [7] is recorded as “presence of intensely bright blue, fluorescent cells”. The compound further came in with an affected proteins activated in data set [8] of 20%. The compound also had an affected proteins downregulated in [8] of 80%. Moreover, the “proteins at least twofold differentially expressed” value in data set [8] (of 4566 identified proteins) turned out to be 223 proteins. For the same compound, the “inhibition in the total ATP level relative to negative control” value in the data set with Acanthamoeba culbertsoni [9] is 62.5 ± 2.36%. The “actin distribution (phalloidin-TRITC fluorescence)” value in [10] was “lower fluorescence than the untreated cells”. In addition, the “decrease in the MMP (ratio red/green JC-1 fluorescence) compared to untreated cells” value in data set [11] stood at 50%. Further, the “tubulin network (immunofluorescence)” value in data set [12] was “highly reduced cell shape with lower fluorescence”. In addition, the “plasma membrane permeability (SYTOX green fluorescence)” value in the data set with Acanthamoeba culbertsoni [13] is recorded as “statistically higher green fluorescence than the negative control”.
